Test results as given in patent US7579475B2, “S-(-)-amlodipine nicotinate and process for the preparation thereof” (Hanlim Pharmaceutical Co., Ltd., priority 2002, dated 2009).

How the values were obtained:
[1] = system: spontaneously hypertensive rats (SHRs); assay: In vivo anti-hypertensive activity in spontaneously hypertensive rats (tail-cuff systolic blood pressure); design: species or system rat; conditions: SHR; for Maximal anti-hypertensive effect (change of systolic blood pressure) / Intensity (maximal effect of S-(−)-amlodipine nicotinate to maximal effect of amlodipine nicotinate) / ED20 (amount necessary for 20% decrease in the blood pressure) / Intensity (reverse ratio of ED20 values relative to amlodipine nicotinate): oral; for Maximal anti-hypertensive effect (change of systolic blood pressure): mean % ± S.E.M.; for Effect on blood pressure (in words): oral, 1, 3 and 10 mg/kg
Description: Male SHRs (Charles Rever Co., Japan) aged 13-14 weeks were used.
The SHRs having a systolic blood pressure over 170 mmHg were divided into 7 groups, i.e., Test Groups 1 to 3 (for amlodipine nicotinate), Test Groups 4 to 6 (for S-(−)-amlodipine nicotinate) and a Control Group. Each Test Group and Control Group consisted of 6-8 SHRs (n=6-8).
The test compounds were dissolved in distilled water to prepare test solutions immediately prior to administration. The test solutions of amlodipine nicotinate and S-(−)-amlodipine nicotinate were prepared by dissolving 1, 3, and 10 mg/kg in distilled water (0.5 ml/100 g rat), respectively, and then administered orally to each Test Group. The vehicle (distilled water) was administered to Control Group.
The systolic blood pressure was measured with Multichannel 8000 (TSE Co., Germany), using a tail-cuff method. That is, the systolic blood pressures of a tail artery of each rat were measured before the administration of the test solutions and after 2, 4, 6, 8, 10, and 24 hours from the administration thereof. In order to facilitate the measurement of blood pressures, the test animals of each Group underwent warming at 37° C. for about 10 minutes before the measurements.
Statistical analysis of the test results were conducted by an unpaired t-test and ANOVA (one-way analysis of variance) with Sigma Stat program (Jandel Co., USA). The secondary evaluations were conducted by a Dunnett's multiple comparison test.

[2] = Photostability test (incandescent lamp, 3 weeks)
Description: 1.0 g of S-(−)-amlodipine besylate prepared, using S-(−)-amlodipine, in accordance with U.S. Pat. No. 4,879,303 and 1.0 g of S-(−)-amlodipine nicotinate dihydrate obtained in Example 1, which were placed in glass schales (100×20 mm), were exposed at 25-30° C. for 3 weeks under an incandescent lamp (220V, 100 W) that was placed at 30 cm above the samples.

[3] = listed as S-(−)-Amlodipine nicotinate, dihydrate

Compound: CCOC(=O)C1=C(COCCN)NC(C)=C(C(=O)OC)C1c1ccccc1Cl (stereo not drawn) [S-(−)-amlodipine nicotinate, S-(−)-amlodipine nicotinate dihydrate]
- Maximal anti-hypertensive effect (change of systolic blood pressure) ([1]; 1 mg/kg): −12.4 ± 1.73%
- Intensity (maximal effect of S-(−)-amlodipine nicotinate to maximal effect of amlodipine nicotinate) ([1]; 3 mg/kg): 1.06
- Maximal anti-hypertensive effect (change of systolic blood pressure) ([1]; 3 mg/kg): −28.3 ± 3.31%
- Intensity (maximal effect of S-(−)-amlodipine nicotinate to maximal effect of amlodipine nicotinate) ([1]; 10 mg/kg): 1.07
- Maximal anti-hypertensive effect (change of systolic blood pressure) ([1]; 10 mg/kg): −43.6 ± 1.65%
- Effect on blood pressure (in words) [1]: dose-dependently reduced blood pressures
- ED20 (amount necessary for 20% decrease in the blood pressure) ([1]; dihydrate): 1.91 ± 0.49 mg/kg
- Intensity (reverse ratio of ED20 values relative to amlodipine nicotinate) ([1]; dihydrate): about 1.15
- ED20 (amount necessary for 20% decrease in the blood pressure) [1, 3]: 1.91 ± 0.49 mg/kg
- Intensity (reverse ratio of ED20 values relative to amlodipine nicotinate) [1, 3]: 1.15
- Difference in 1H-NMR before and after photostability test [2]: no significant difference
- Photostability (overall conclusion) [2]: improved photostability

Compound: CCOC(=O)C1=C(COCCN)NC(C)=C(C(=O)OC)[C@@H]1c1ccccc1Cl.O=S(=O)(O)c1ccccc1 [S-(−)-amlodipine besylate]
- Water contents absorbed during the photostability test ([2]; 25-30° C., 3 weeks under incandescent lamp): 1.5-2.5

Compound: CCOC(=O)C1=C(COCCN)NC(C)=C(C(=O)OC)[C@@H]1c1ccccc1Cl.O=C(O)c1cccnc1 [amlodipine nicotinate]
- ED20 (amount necessary for 20% decrease in the blood pressure) [1]: 2.19 ± 0.57 mg/kg
- Intensity (reverse ratio of ED20 values relative to amlodipine nicotinate) [1]: 1.00
- Maximal anti-hypertensive effect (change of systolic blood pressure) ([1]; 1 mg/kg): −10.20 ± 2.71%
- Maximal anti-hypertensive effect (change of systolic blood pressure) ([1]; 3 mg/kg): −26.8 ± 3.22%
- Maximal anti-hypertensive effect (change of systolic blood pressure) ([1]; 10 mg/kg): −40.9 ± 2.08%
- Effect on blood pressure (in words) [1]: dose-dependently reduced blood pressures
- ED20 (amount necessary for 20% decrease in the blood pressure) ([1]; listed as Amlodipine nicotinate): 2.19 ± 0.57 mg/kg
